Source: patent US10647690B2, “2,3-epoxy succinyl derivative, preparation method and use thereof” (Institute of Pharmacology and Toxicology Academy of …, priority 2016, dated 2020)
Where two headings read alike, the source gives them in different places.

Molecular target: T1, Cathepsin K (Homo sapiens, UniProt P43235)
T1 construct: purchased Biovision K150-100
T1 sequence (P43235 115-329): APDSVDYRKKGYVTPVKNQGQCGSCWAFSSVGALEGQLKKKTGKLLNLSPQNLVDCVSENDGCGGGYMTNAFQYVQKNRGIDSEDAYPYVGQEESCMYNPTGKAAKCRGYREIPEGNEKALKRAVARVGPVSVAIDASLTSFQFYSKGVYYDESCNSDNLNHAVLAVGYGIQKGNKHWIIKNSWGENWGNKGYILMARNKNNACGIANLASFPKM
Assay: Preliminary screening of Cathepsin K (Cathepsin K Inhibitor Screening Kit K150-100, Biovision)
Type: biochemical
Settings: relative inhibition rate vs 10 μM FF-FMK control; for inhibition at 1 µM / Inhibition % (1 μM) replicate 1 / Inhibition % (1 μM) replicate 2: 1 μM compound; for inhibition at 10 µM / Inhibition % (10 μM) replicate 1 / Inhibition % (10 μM) replicate 2: 10 μM compound
Experimental: 1. Method for preliminary screening of Cathepsin K:
Preliminary screening of Cathepsin K was performed by using Cathepsin K Inhibitor Screening Kit (Product No. K150-100) from Biovision Company.
1.1.1 Preparation of Cathepsin K enzyme solution: Cathepsin K enzyme (40 μl) and Cathepsin K reagent (80 μl) were added to Cathepsin K buffer (3.88 ml), and were mixed well, to prepare Cathepsin K enzyme solution with a volume of 4 ml, which was placed on ice for further use.
1.1.2 Preparation of a compound solution: different compounds were separately weighed and dissolved in DMSO (methyl sulfoxide), to prepare solutions at a concentration of 30 mM as stock solutions, and for some insoluble compounds, they were prepared into solutions at a concentration of 10 mM as stock solutions; the 30 mM and 10 mM compound stock solutions were diluted to 1 mM and 100 μM DMSO solutions, respectively; 1 mM and 100 μM compound DMSO solutions (2 μl) were separately added to CTSK buffer (18 μl), to prepare compound solutions at a final concentration of 100 μM and 10 μM, respectively, wherein the concentration of DMSO was 10%.
1.1.3 Preparation of Cathepsin K substrate solution: Cathepsin K substrate (160 μl) was added to Cathepsin K buffer (3.44 ml), and mixed homogeneously, to prepare Cathepsin K substrate solution with a volume of 3.6 ml, which was placed on ice for further use.
1.2 Method for screening Cathepsin K inhibitor: Cathepsin K enzyme solution (prepared in Item 1.1.1) was added to a 384-well plate (ProxiPlate-384 Plus, Perkinelmer) at 10 μl/well, and centrifuged at 1000 rpm for 1 min; the compound solution (prepared in Item 1.1.2) was then added at 2 µl/well, and centrifuged at 1000 rpm for 1 min, and every concentration was repeated in two wells; the plate was placed in a 25° C. incubator for 15 min; Cathepsin K substrate solution was then added at 8 μl/well, and centrifuged at 1000 rpm for 1 min; and finally, the fluorescence signal was read in Enspire, wherein the exciting light was at a wavelength of 400 nm, the emitting light was at a wavelength of 505 nm, and continuous reading was performed at 37° C. for 120 min.
1.3 Data analysis: the slope (S) for all the samples was calculated by ΔRFU (RFU2−RFU1) and time ΔT (T2−T1), including negative control (Enzyme Control, EC) and positive control (Inhibitor Control, IC: 10 μM FF-FMK), and the calculation formula was as followed: Relative inhibition rate %=(SEC−SS)/(SEC−SIC)*100.

[1] = replicate 1, read-out: Inhibition % (1 μM) replicate 1
[2] = replicate 2, read-out: Inhibition % (1 μM) replicate 2
[3] = replicate 1, read-out: Inhibition % (10 μM) replicate 1
[4] = replicate 2, read-out: Inhibition % (10 μM) replicate 2

Structure (SMILES)	inhibition at 1 µM [1] [%]	inhibition at 1 µM [2] [%]	inhibition at 10 µM [3] [%]	inhibition at 10 µM [4] [%]	Inhibition % (1 μM) replicate 1 (replicate 1) [%]	Inhibition % (1 μM) replicate 2 (replicate 2) [%]	Inhibition % (10 μM) replicate 1 (replicate 1) [%]	Inhibition % (10 μM) replicate 2 (replicate 2) [%]
CCOC(=O)[C@H]1O[C@@H]1C(=O)N[C@@H](CSCc1ccccc1)C(=O)N1CCC(c2ccccc2)CC1 [Compound 23, (2s, 3s)-2-ethoxycarbonyl-3-[2-[(s)-3-benzylthio-1-carbonyl-1-(4-phenylpiperidinyl)propane]formylamino]epoxysuccinic acid]	16.1	37.7	70.1	63	–	–	–	–
CCOC(=O)[C@H]1O[C@@H]1C(=O)N[C@@H](CCSC)C(=O)N1CCSCC1 [Compound 36, (2s, 3s)-2-ethoxycarbonyl-3-[2-[(s)-4-methylthio-1-carbonyl-1-(thiomorpholinyl)butane]formylamino]epoxysuccinic acid]	17.5	21.6	61.4	63.5	–	–	–	–
CCCCCCNC(=O)[C@H](CSCc1ccccc1)NC(=O)[C@H]1O[C@@H]1C(=O)OCC [Compound 18, (2s, 3s)-2-ethoxycarbonyl-3-[2-[(s)-3-benzylthio-1-carbonyl-1-(hexylamino)propane]formylamino]epoxysuccinic acid]	23.5	32.7	56.1	48.2	–	–	–	–
CCOC(=O)[C@H]1O[C@@H]1C(=O)N[C@@H](CCSC)C(=O)N1CC(C)CC(C)C1 (stereo partly drawn) [Compound 41, (2s, 3s)-2-ethoxycarbonyl-3-[2-[(s)-4-methylthio-1-carbonyl-1-(3,5-dimethylpiperidinyl)butane]formylamino]epoxysuccinic acid]	32.1	30.8	64.2	61	–	–	–	–
CCOC(=O)[C@H]1O[C@@H]1C(=O)N[C@@H](CCSC)C(=O)N1CCCC1 [Compound 11, (2s, 3s)-2-ethoxycarbonyl-3-[2-[(s)-4-methylthio-1-carbonyl-1-(tetrahydropyrrolyl)butane]formylamino]epoxysuccinic acid]	15.3	-7.42	32	15.2	–	–	–	–
CCOC(=O)[C@H]1O[C@@H]1C(=O)N[C@@H](CSCc1ccccc1)C(=O)NC(C)CC (stereo partly drawn) [Compound 19, (2s, 3s)-2-ethoxycarbonyl-3-[2-[(s)-3-benzylthio-1-carbonyl-1-(1-methylpropylamino)propane]formylamino]epoxysuccinic acid]	32	20.4	33.5	27.9	–	–	–	–
CCOC(=O)[C@H]1O[C@@H]1C(=O)N[C@@H](CCSC)C(=O)N1CCOCC1 [Compound 12, (2s, 3s)-2-ethoxycarbonyl-3-[2-[(s)-4-methylthio-1-carbonyl-1-(morpholinyl)butane]formylamino]epoxysuccinic id]	15.4	26.6	44	51.7	–	–	–	–
CCOC(=O)[C@H]1O[C@@H]1C(=O)N[C@H](CSCc1ccccc1)C(=O)NCCc1ccc(OC)cc1 [Compound 26, (2s, 3s)-2-ethoxycarbonyl-3-[2-[(s)-3-benzylthio-1-carbonyl-1-(4-methoxyphenylethylamino)propane]formylamino]epoxysuccinic acid]	–	–	–	–	35.73	44.11	67.87	63.25
CCOC(=O)[C@H]1O[C@@H]1C(=O)N[C@@H](CCSC)C(=O)N1CCCCC1CC (stereo partly drawn) [Compound 35, (2s, 3s)-2-ethoxycarbonyl-3-[2-[(s)-4-methylthio-1-carbonyl-1-(2-ethylpiperidinyl)butane]formylamino]epoxysuccinic acid]	37.8	22.8	72	61.1	–	–	–	–
CCOC(=O)[C@H]1O[C@@H]1C(=O)N[C@H](CSCc1ccccc1)C(=O)NCC(C)CC (stereo partly drawn) [Compound 14, (2s, 3s)-2-ethoxycarbonyl-3-[2-[(s)-3-benzylthio-1-carbonyl-1-(2-methylbutylamino)propane]formylamino]epoxysuccinic acid]	–	–	–	–	31.16	−7.18	42.39	41.33
CCCCCNC(=O)[C@H](CCSC)NC(=O)[C@H]1O[C@@H]1C(=O)OCC [Compound 2, (2s, 3s)-2-ethoxycarbonyl-3-[2-[(s)-4-methylthio-1-carbonyl-1-(pentylamino)butane]formylamino]epoxysuccinic acid]	28.6	33.2	59.5	60	–	–	–	–

Now from value to molecule, other results behind:

inhibition at 1 µM [1] [%]	inhibition at 1 µM [2] [%]	inhibition at 10 µM [3] [%]	inhibition at 10 µM [4] [%]	Structure (SMILES)	Inhibition % (1 μM) replicate 1 (replicate 1) [%]	Inhibition % (1 μM) replicate 2 (replicate 2) [%]	Inhibition % (10 μM) replicate 1 (replicate 1) [%]	Inhibition % (10 μM) replicate 2 (replicate 2) [%]
30.5	36.6	44.1	45.4	CCOC(=O)[C@H]1O[C@@H]1C(=O)N[C@@H](CCSC)C(=O)NC(C)(C)CC [Compound 31, (2s, 3s)-2-ethoxycarbonyl-3-[2-[(s)-4-methylthio-1-carbonyl-1-(tert-pentylamino)butane]formylamino]epoxysuccinic acid]	–	–	–	–
36.6	33.1	34.9	36	CCOC(=O)[C@H]1O[C@@H]1C(=O)N[C@@H](CCSC)C(=O)NCCc1ccc(C)cc1 [Compound 33, (2s, 3s)-2-ethoxycarbonyl-3-[2-[(s)-4-methylthio-1-carbonyl-1-(p-methylphenylethylamino)butane]formylamino]epoxysuccinic acid]	–	–	–	–
33.1	35.8	80.2	66.5	CCOC(=O)[C@H]1O[C@@H]1C(=O)N[C@@H](CCSC)C(=O)NCCc1ccc(OC)cc1 [Compound 10, (2s, 3s)-2-ethoxycarbonyl-3-[2-[(s)-4-methylthio-1-carbonyl-1-(4-methoxyphenylethylamino)butane]formylamino]epoxysuccinic acid]	–	–	–	–
28.1	35.6	50.1	48.6	CCOC(=O)[C@H]1O[C@@H]1C(=O)N[C@@H](CSCc1ccccc1)C(=O)NCC(C)(C)C [Compound 15, (2s, 3s)-2-ethoxycarbonyl-3-[2-[(s)-3-benzylthio-1-carbonyl-1-(neopentylamino)propane]formylamino]epoxysuccinic acid]	–	–	–	–
15.6	23.6	31.6	34.9	CCCNC(=O)[C@H](CCSC)NC(=O)[C@H]1O[C@@H]1C(=O)OCC [Compound 4, (2s, 3s)-2-ethoxycarbonyl-3-[2-[(s)-4-methylthio-1-carbonyl-1-(propylamino)butane]formylamino]epoxysuccinic acid]	–	–	–	–
36.8	37.9	44.3	41.4	CCOC(=O)[C@H]1O[C@@H]1C(=O)N[C@@H](CCSC)C(=O)N1CCSC1 [Compound 38, (2s, 3s)-2-ethoxycarbonyl-3-[2-[(s)-4-methylthio-1-carbonyl-1-(tetrahydrothiazolyl)butane]formylamino]epoxysuccinic acid]	–	–	–	–
30.2	37	36.3	50.4	CCOC(=O)[C@H]1O[C@@H]1C(=O)N[C@@H](CSCc1ccccc1)C(=O)NCCCCc1ccccc1 [Compound 20, (2s, 3s)-2-ethoxycarbonyl-3-[2-[(s)-3-benzylthio-1-carbonyl-1-(4-phenylbutylamino)propane]formylamino]epoxysuccinic acid]	–	–	–	–
